Counter-ions that a name gives are not always drawn. Like-named read-outs stand apart in the source and are kept apart here.
Biological target: hBTK (full-length BTK, 6HIS-tag cleaved) (Homo sapiens (Human), UniProt Q06187)
Test: BTK enzymatic activity, LANCE TR-FRET assay (Assay Method C)
Assay type: biochemical
Conditions: 50 pM hBTK, 25 μM ATP
[1] = LANCE TR-FRET, class 100-1000 is given as ≧100 nM-<1 μM, read-out: IC50 Btk activity values - Assay Method C
[2] = Table D, Assay Method C (LANCE TR-FRET), read-out: IC50 BTK activity value

Sequence of hBTK (full-length BTK, 6HIS-tag cleaved) (Q06187 whole entry): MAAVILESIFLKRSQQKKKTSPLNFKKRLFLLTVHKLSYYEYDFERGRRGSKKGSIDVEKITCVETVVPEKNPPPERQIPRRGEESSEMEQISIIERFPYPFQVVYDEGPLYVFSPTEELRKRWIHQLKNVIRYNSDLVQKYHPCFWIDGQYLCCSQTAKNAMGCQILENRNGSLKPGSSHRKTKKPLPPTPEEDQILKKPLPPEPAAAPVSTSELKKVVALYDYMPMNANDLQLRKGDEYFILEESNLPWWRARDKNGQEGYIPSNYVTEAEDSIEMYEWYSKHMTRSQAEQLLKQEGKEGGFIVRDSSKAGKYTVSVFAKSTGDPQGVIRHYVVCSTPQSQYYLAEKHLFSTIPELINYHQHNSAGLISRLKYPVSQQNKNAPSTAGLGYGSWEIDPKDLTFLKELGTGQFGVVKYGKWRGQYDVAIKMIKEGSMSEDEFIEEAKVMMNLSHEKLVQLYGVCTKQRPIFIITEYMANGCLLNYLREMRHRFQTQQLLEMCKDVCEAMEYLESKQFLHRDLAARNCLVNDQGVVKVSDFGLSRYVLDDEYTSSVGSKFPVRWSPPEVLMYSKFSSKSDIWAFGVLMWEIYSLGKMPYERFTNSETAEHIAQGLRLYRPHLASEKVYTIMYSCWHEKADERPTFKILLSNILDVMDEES

SMILES | IC50 [1] | IC50 [2]
CO[C@@H](C)c1cnc(N)c2c(-c3ccc(C(=O)Nc4cc(C(F)(F)F)ccn4)cc3)nc([C@@H]3CCCN(C(=O)C4(C)COC4)C3)n12 [Example 468, 4-(8-amino-5-[(1S)-1-methoxyethyl]-3-{(3R)-1-[(3-methyloxetan-3-yl)carbonyl]piperidin-3-yl}imidazo[1,5-a]pyrazin-1-yl)-N-[4-(trifluoromethyl)pyridin-2-yl]benzamide] | < 10 nM | –
COc1ccnc(NC(=O)c2ccc(-c3nc([C@@H]4CCCN(C(C)=O)C4)n4c(C)cnc(N)c34)cc2)c1 [Example 460, 4-{3-[(3R)-1-acetylpiperidin-3-yl]-8-amino-5-methylimidazo[1,5-a]pyrazin-1-yl}-N-(4-methoxypyridin-2-yl)benzamide] | < 10 nM | –
CC1(C(=O)N2CCC[C@@H](c3nc(-c4ccc(C(=O)Nc5cscn5)cc4)c4c(N)nccn34)C2)COC1 [Example 350, 4-(8-amino-3-{(3R)-1-[(3-methyloxetan-3-yl)carbonyl]piperidin-3-yl}imidazo[1,5-a]pyrazin-1-yl)-N-1,3-thiazol-4-ylbenzamide] | 10 to 100 nM | –
CC(=O)N1C[C@H](c2nc(-c3ccc(C(=O)Nc4cc(C(F)F)ccn4)cc3F)c3c(N)nccn23)CC[C@@H]1C [Example 435, 4-{3-[(3R,6S)-1-acetyl-6-methylpiperidin-3-yl]-8-aminoimidazo[1,5-a]pyrazin-1-yl}-N-[4-(difluoromethyl)pyridin-2-yl]-3-fluorobenzamide] | < 10 nM | –
N#CCN1CCO[C@@H](c2nc(-c3ccc(C(=O)Nc4cc(C(F)(F)F)ccn4)cc3)c3c(N)ncc(Cl)n23)C1 [Example 533, 4-{8-amino-5-chloro-3-[(2R)-4-(cyanomethyl)morpholin-2-yl]imidazo[1,5-a]pyrazin-1-yl}-N-[4-(trifluoromethyl)pyridin-2-yl]benzamide] | < 10 nM | –
CC(C)COc1ccnc(NC(=O)c2ccc(-c3nc([C@@H]4CC[C@H](C)N(C(=O)C5(C)COC5)C4)n4ccnc(N)c34)cc2)c1 [Example 417, 4-(8-amino-3-{(3R,6S)-6-methyl-1-[(3-methyloxetan-3-yl)carbonyl]piperidin-3-yl}imidazo[1,5-a]pyrazin-1-yl)-N-[4-(2-methylpropoxy)pyridin-2-yl]benzamide] | < 10 nM | –
Nc1nccn2c([C@H]3CN(CCO)CCO3)nc(-c3ccc(C(=O)Nc4cc(C(F)(F)F)ccn4)cc3)c12 [Example 492, (R)-4-(8-amino-3-(4-(2-hydroxyethyl)morpholin-2-yl)imidazo[1,5-a]pyrazin-1-yl)-N-(4-(trifluoromethyl)pyridin-2-yl)benzamide] | < 10 nM | –
C[C@H]1CC[C@@H](c2nc(-c3ccc(C(=O)Nc4cc(C(F)F)ccn4)cc3F)c3c(N)nccn23)CN1C(=O)C1CC1 [Example 436, 4-{8-amino-3-[(3R,6S)-1-(cyclopropylcarbonyl)-6-methylpiperidin-3-yl]imidazo[1,5-a]pyrazin-1-yl}-N-[4-(difluoromethyl)pyridin-2-yl]-3-fluorobenzamide] | < 10 nM | 0.479 nM
CC1(C(=O)N2CCC[C@@H](c3nc(-c4ccc(C(=O)Nc5ccc(C#N)cn5)cc4)c4c(N)nccn34)C2)COC1 [Example 327, 4-(8-amino-3-{(3R)-1-[(3-methyloxetan-3-yl)carbonyl]piperidin-3-yl}imidazo[1,5-a]pyrazin-1-yl)-N-(5-cyanopyridin-2-yl)benzamide] | < 10 nM | –
Nc1nccn2c([C@H]3CC[C@H](C(F)(F)F)N(CCO)C3)nc(-c3ccc(C(=O)Nc4cc(C(F)(F)F)ccn4)cc3)c12 [Example 437, 4-{8-amino-3-[(3S,6R)-1-(2-hydroxyethyl)-6-(trifluoromethyl)piperidin-3-yl]imidazo[1,5-a]pyrazin-1-yl}-N-[4-(trifluoromethyl)pyridin-2-yl]benzamide] | < 10 nM | –
Cc1ccnc(NC(=O)c2ccc(-c3nn([C@@H]4CCCN(C(=O)C5(C)COC5)C4)c4ccnc(N)c34)cc2)c1 [Example 387, 4-(4-amino-1-{(3R)-1-[(3-methyloxetan-3-yl)carbonyl]piperidin-3-yl}-1H-pyrazolo[4,3-c]pyridin-3-yl)-N-(4-methylpyridin-2-yl)benzamide] | < 10 nM | –
Cn1cc2c(n1)CCC[C@@H]2n1nc(-c2ccc(C(=O)Nc3cc(C(F)(F)F)ccn3)cc2)c2c(N)ncnc21 [Example 558, 4-{4-amino-1-[(4S)-2-methyl-4,5,6,7-tetrahydro-2H-indazol-4-yl]-1H-pyrazolo[3,4-d]pyrimidin-3-yl}-N-[4-(trifluoromethyl)pyridin-2-yl]benzamide, TFA salt] | < 10 nM | –
COc1ccnc(NC(=O)c2ccc(-c3nc([C@@H]4CCCN(C(=O)C5(C)COC5)C4)n4c(C)cnc(N)c34)cc2)c1 [Example 459, 4-(8-amino-5-methyl-3-{(3R)-1-[(3-methyloxetan-3-yl)carbonyl]piperidin-3-yl}imidazo[1,5-a]pyrazin-1-yl)-N-(4-methoxypyridin-2-yl)benzamide] | < 10 nM | –
C[C@@H](O)C(=O)N1CCO[C@@H](c2nc(-c3ccc(C(=O)Nc4cc(C(F)(F)F)ccn4)cc3)c3c(N)ncc(Cl)n23)C1 [Example 524, 4-(8-amino-5-chloro-3-{(2R)-4-[(2R)-2-hydroxypropanoyl]morpholin-2-yl}imidazo[1,5-a]pyrazin-1-yl)-N-[4-(trifluoromethyl)pyridin-2-yl]benzamide] | < 10 nM | –
COCCC(=O)N1CCC[C@@H](c2nc(-c3ccc(C(=O)Nc4cc(C(F)(F)F)ccn4)cc3F)c3c(N)nccn23)C1 [Example 576, 4-{8-amino-3-[(3R)-1-(3-methoxypropanoyl)piperidin-3-yl]imidazo[1,5-a]pyrazin-1-yl}-3-fluoro-N-[4-(trifluoromethyl)pyridin-2-yl]benzamide, TFA salt] | < 10 nM | –
Cn1ccc(NC(=O)c2ccc(-c3nc([C@@H]4CCCN(C(=O)C5(C)COC5)C4)n4ccnc(N)c34)cc2)n1 [Example 365, 4-(8-amino-3-{(3R)-1-[(3-methyloxetan-3-yl)carbonyl]piperidin-3-yl}imidazo[1,5-a]pyrazin-1-yl)-N-(1-methyl-1H-pyrazol-3-yl)benzamide] | 10 to 100 nM | –

More lines, now with the values ahead:

IC50 [1] | IC50 [2] | SMILES
< 10 nM | – | CC1(CN2CCC[C@@H](c3nc(-c4ccc(C(=O)Nc5cc(C(F)(F)F)ccn5)cc4)c4c(N)nccn34)C2)COC1 [Example 338, 4-(8-amino-3-{(3R)-[(3-methyloxetan-3-yl)methyl]piperidin-3-yl}imidazo[1,5-a]pyrazin-1-yl)-N-[4-(trifluoromethyl)pyridin-2-yl]benzamide]
< 10 nM | – | CCC(=O)N1C[C@@H](c2nc(-c3ccc(C(=O)Nc4cc(C(F)(F)F)ccn4)cc3)c3c(N)nccn23)CC[C@@H]1C(F)(F)F [Example 415, 4-{8-amino-3-[(3S,6R)-1-propanoyl-6-(trifluoromethyl)piperidin-3-yl]imidazo[1,5-a]pyrazin-1-yl}-N-[4-(trifluoromethyl)pyridin-2-yl]benzamide]
< 10 nM | 0.472 nM | C[C@H](O)C(=O)N1CCC[C@@H](c2nc(-c3ccc(C(=O)Nc4cc(C(F)(F)F)ccn4)cc3)c3c(N)nccn23)C1 [Example 345, 4-(8-amino-3-{(3R)-1-[(2S)-2-hydroxypropanoyl]piperidin-3-yl}imidazo[1,5-a]pyrazin-1-yl)-N-[4-(trifluoromethyl)pyridin-2-yl]benzamide]
< 10 nM | 0.167 nM | C[C@H]1CC[C@@H](c2nc(-c3ccc(C(=O)Nc4cc(C(F)(F)F)ccn4)cc3)c3c(N)nccn23)CN1C(=O)C1(C)COC1 [Example 393, 4-(8-amino-3-{(3R,6S)-6-methyl-1-[(3-methyloxetan-3-yl)carbonyl]piperidin-3-yl}imidazo[1,5-a]pyrazin-1-yl)-N-[4-(trifluoromethyl)pyridin-2-yl]benzamide]
< 10 nM | – | Nc1nccn2c([C@@H]3CCCN(C(=O)C4(O)CC4)C3)nc(-c3ccc(C(=O)Nc4cc(C(F)(F)F)ccn4)cc3)c12 [Example 342, 4-(8-amino-3-{(3R)-1-[(1-hydroxycyclopropyl)carbonyl]piperidin-3-yl}imidazo[1,5-a]pyrazin-1-yl)-N-[4-(trifluoromethyl)pyridin-2-yl]benzamide]
< 10 nM | – | COCC(=O)N1CCO[C@@H](c2nc(-c3ccc(C(=O)Nc4cc(C(F)(F)F)ccn4)cc3)c3c(N)nccn23)C1 [Example 521, 4-{8-amino-3-[(2R)-4-(methoxyacetyl)morpholin-2-yl]imidazo[1,5-a]pyrazin-1-yl}-N-[4-(trifluoromethyl)pyridin-2-yl]benzamide]
< 10 nM | – | CC(=O)N1CCC[C@@H](c2nc(-c3ccc(C(=O)Nc4cc(C(F)(F)F)ccn4)cc3)c3c(N)ncc(Cl)n23)C1 [Example 440, 4-{3-[(3R)-1-acetylpiperidin-3-yl]-8-amino-5-chloroimidazo[1,5-a]pyrazin-1-yl}-N-[4-(trifluoromethyl)pyridin-2-yl]benzamide]
< 10 nM | – | CN1CCC[C@H]1C(=O)N1CCC[C@@H](c2nc(-c3ccc(C(=O)Nc4cc(C(F)(F)F)ccn4)cc3)c3c(N)nccn23)C1 [Example 341, 4-{8-amino-3-[(3R)-1-(1-methyl-L-prolyl)piperidin-3-yl]imidazo[1,5-a]pyrazin-1-yl}-N-[4-(trifluoromethyl)pyridin-2-yl]benzamide]
< 10 nM | – | CNC(=O)N1C[C@@H](c2nc(-c3ccc(C(=O)Nc4cc(C(F)(F)F)ccn4)cc3)c3c(N)nccn23)CC[C@@H]1C(F)(F)F [Example 412, (2R,5S)-5-[8-amino-1-(4-{[4-(trifluoromethyl)pyridin-2-yl]carbamoyl}phenyl)imidazo[1,5-a]pyrazin-3-yl]-N-methyl-2-(trifluoromethyl)piperidine-1-carboxamide]
< 10 nM | – | C[C@@H](O)c1cnc(N)c2c(-c3ccc(C(=O)Nc4cc(C(F)(F)F)ccn4)cc3)nc([C@@H]3CCCN(C(=O)C4(C)COC4)C3)n12 [Example 465, 4-(8-amino-5-[(1R)-1-hydroxyethyl]-3-{(3R)-1-[(3-methyloxetan-3-yl)carbonyl]piperidin-3-yl}imidazo[1,5-a]pyrazin-1-yl)-N-[4-(trifluoromethyl)pyridin-2-yl]benzamide]
